# Where two headings read alike, the source gives them in different places.
# How the values were obtained:
# [1] = system: Wnt-dependent HCT116 cell line; assay: Viability assay using Wnt-dependent HCT116 cell line (Cell Titer Glo); format: cell-based; details: Homo sapiens, HCT-116, HCT116 cells, read-out: Viability IC50 category
# Description: All compounds were tested using the human cell line HEK STF293. This cell line carries a Wnt reporter (TCF/LEF1 promoter), which drives expression of the firefly luciferase protein. The level of Wnt activity is directly correlated with the level of luciferase activity (determined using a simple assay). Compounds that inhibit Wnt signaling by reducing luciferase activity in these two cell lines are further tested biochemically. […] Compounds were further tested in a Viability assay using Wnt-dependent HCT116 cell line. HEK293 cells were seeded in a 6-well plate at approximately 8.0×10^5 cells (2 mL per well). On the first day, Wnt3a-conditioned media (1:1) and compounds (1:100) were added to the plated cells. The final concentrations of compounds were 1 μM, 500 nM, and 100 nM. Vehicle (DMSO) and a Wnt3a-conditioned media plus Vehicle samples were also prepared as controls. Lysates were collected (with non-denaturing lysis buffer) after 24 hours incubation, and protein concentrations determined by Bradford Assay. Immunoblotting with an anti-beta-catenin antibody (equivalent amounts of protein/lane for each condition) were subsequently performed to determine beta-catenin levels. HCT116 cells were seeded at 2,500 cells/well in a 96-well dish (Volume: 100 μL/well). On the second day, the 10 mM stock solution of each test compound was thawed at room temperature. Dilutions of the test compound were prepared in DMSO in a V-bottom 96-well plate. The stock compound solution, DMSO-diluted compound solutions, and DMSO were further diluted 500-fold in cell culture media, and 100 μL of the compound- or DMSO-containing cell culture media was added to each well of the cells. […] The final DMSO concentration was 0.1% in all wells. On the fifth day, 150 μL of media was removed from each well. 50 μL/well Cell Titer Glo reagent (Promega) was added to each well. The plate was shaken at 130 rpm for 15 minutes at room temperature, and the cell viability was determined using a luminescence plate reader. All compounds were tested using the human cell line HEK STF293. This cell line carries a Wnt reporter (TCF/LEF1 promoter), which drives expression of the firefly luciferase protein. The level of Wnt activity is directly correlated with the level of luciferase activity (determined using a simple assay). Compounds that inhibit Wnt signaling by reducing luciferase activity in these two cell lines are further tested biochemically. […] Compounds were further tested in a Viability assay using Wnt-dependent HCT116 cell line. HEK293 cells were seeded in a 6-well plate at approximately 8.0×10^5 cells (2 mL per well). On the first day, Wnt3a-conditioned media (1:1) and compounds (1:100) were added to the plated cells. The final concentrations of compounds were 1 μM, 500 nM, and 100 nM. Vehicle (DMSO) and a Wnt3a-conditioned media plus Vehicle samples were also prepared as controls. Lysates were collected (with non-denaturing lysis buffer) after 24 hours incubation, and protein concentrations determined by Bradford Assay. Immunoblotting with an anti-beta-catenin antibody (equivalent amounts of protein/lane for each condition) were subsequently performed to determine beta-catenin levels. HCT116 cells were seeded at 2,500 cells/well in a 96-well dish (Volume: 100 μL/well). On the second day, the 10 mM stock solution of each test compound was thawed at room temperature. Dilutions of the test compound were prepared in DMSO in a V-bottom 96-well plate. The stock compound solution, DMSO-diluted compound solutions, and DMSO were further diluted 500-fold in cell culture media, and 100 μL of the compound- or DMSO-containing cell culture media was added to each well of the cells. […] The final DMSO concentration was 0.1% in all wells. On the fifth day, 150 μL of media was removed from each well. 50 μL/well Cell Titer Glo reagent (Promega) was added to each well. The plate was shaken at 130 rpm for 15 minutes at room temperature, and the cell viability was determined using a luminescence plate reader. […]
# [2] = system: Wnt reporter (TCF/LEF1 promoter); assay: HEK STF293 Wnt reporter (TOPFlash) luciferase assay, Steady Glo normalised to Cell Titer; format: cell-based, human; details: Homo sapiens, STF/293, HEK STF293 cells, Wnt3a-conditioned media, read-out: TOPFlash IC50 category
# Description: All compounds were tested using the human cell line HEK STF293. This cell line carries a Wnt reporter (TCF/LEF1 promoter), which drives expression of the firefly luciferase protein. The level of Wnt activity is directly correlated with the level of luciferase activity (determined using a simple assay). Compounds that inhibit Wnt signaling by reducing luciferase activity in these two cell lines are further tested biochemically. […] Compounds were further tested in a Viability assay using Wnt-dependent HCT116 cell line. Compounds were prepared as 10 mM stocks for each compound in DMSO. Dilutions were prepared in a 96-well plate in DMSO. The stock dilutions are as follows: 10 mM, 1 mM, 100 μM, 10 μM, 100 nM, and 10 nM. Plates were sealed and stored at −20° C. […] On the first day, Wnt3a-conditioned media (1:1) were added along with diluted compounds (1:100). […] The final concentrations should therefore be 100 μM, 10 μM, 1 μM, 100 nM, 10 nM, and 1 nM. On the second day, the media was removed and 75 μL of Passive Lysis Buffer (Promega) is added to each well. The plate was shaken at 130 rpm for 15 minutes. For the Steady Glo assay, 45 μL of the lysis was removed and added to a white 96-well plate containing 45 μL/well of Steady Glo solution (Promega). For the Cell Titer assay, 25 μL of the lysis was transferred to a white 96-well plate containing 25 μL/well of Cell Titer solution (Promega). Both Steady Glo and Cell Titer assays were read with a luminescence plate reader. When determining EC50, the Steady Glo values were divided by the Cell Titer values to normalize for cell number. All compounds were tested using the human cell line HEK STF293. This cell line carries a Wnt reporter (TCF/LEF1 promoter), which drives expression of the firefly luciferase protein. The level of Wnt activity is directly correlated with the level of luciferase activity (determined using a simple assay). Compounds that inhibit Wnt signaling by reducing luciferase activity in these two cell lines are further tested biochemically. […] Compounds were further tested in a Viability assay using Wnt-dependent HCT116 cell line. Compounds were prepared as 10 mM stocks for each compound in DMSO. Dilutions were prepared in a 96-well plate in DMSO. The stock dilutions are as follows: 10 mM, 1 mM, 100 μM, 10 μM, 100 nM, and 10 nM. Plates were sealed and stored at −20° C. […] On the first day, Wnt3a-conditioned media (1:1) were added along with diluted compounds (1:100). […] The final concentrations should therefore be 100 μM, 10 μM, 1 μM, 100 nM, 10 nM, and 1 nM. On the second day, the media was removed and 75 μL of Passive Lysis Buffer (Promega) is added to each well. The plate was shaken at 130 rpm for 15 minutes. For the Steady Glo assay, 45 μL of the lysis was removed and added to a white 96-well plate containing 45 μL/well of Steady Glo solution (Promega). For the Cell Titer assay, 25 μL of the lysis was transferred to a white 96-well plate containing 25 μL/well of Cell Titer solution (Promega). Both Steady Glo and Cell Titer assays were read with a luminescence plate reader. When determining EC50, the Steady Glo values were divided by the Cell Titer values to normalize for cell number. All compounds were tested using the human cell line HEK STF293. This cell line carries a Wnt reporter (TCF/LEF1 promoter), which drives expression of the firefly luciferase protein. The level of Wnt activity is directly correlated with the level of luciferase activity (determined using a simple assay). Compounds that inhibit Wnt signaling by reducing luciferase activity in these two cell lines are further tested biochemically. […] Compounds were further tested in a Viability assay using Wnt-dependent HCT116 cell line. Compounds were prepared as 10 mM stocks for each compound in DMSO. Dilutions were prepared in a 96-well plate in DMSO. The stock dilutions are as follows: 10 mM, 1 mM, 100 μM, 10 μM, 100 nM, and 10 nM. Plates were sealed and stored at −20° C. […]
# [3] = Examples for Formulae (IV), (V), (VI), and (VII)
# [4] = Examples for Formulae (I), (II), and (III)
# [5] = Examples for Formulae (VIII), (IX), and (X)
Compound,"IC50 [1, 3]","IC50 [2, 3]","IC50 [1, 4]","IC50 [2, 4]",also measured
CCc1nc(-c2ccc(F)cc2)c(C(=O)Nc2nc(-c3ccccn3)cs2)o1 [Example 13],< 200 nM,< 200 nM,,,
Cc1nn(Cc2ccc(Cl)cc2Cl)c(Cl)c1C(=O)Nc1nc(-c2ccccn2)cs1 [Example 13],,,500 to 1000 nM,500 to 1000 nM,
O=C(Nc1nc(-c2ccccn2)cs1)c1cccnc1Oc1ccc(C(F)(F)F)cc1 [Example 13],,,,,"IC50 [1, 5]: 500 to 1000 nM; IC50 [2, 5]: 200 to 500 nM"
Cc1onc(-c2c(F)cccc2Cl)c1C(=O)Nc1nc(-c2ccccn2)cs1 [Example 14],200 to 500 nM,< 200 nM,,,
O=C(Nc1nc(-c2ccccn2)cs1)c1cn(-c2ccccc2)nc1-c1ccccc1 [Example 14],,,200 to 500 nM,< 200 nM,
Cc1nn(Cc2ccc(C(F)(F)F)cc2)c(C)c1C(=O)Nc1nc(-c2ccccn2)cs1 [Example 16],,,500 to 1000 nM,500 to 1000 nM,
Cc1onc(-c2ccc(Cl)cc2F)c1C(=O)Nc1nc(-c2ccccn2)cs1 [Example 16],200 to 500 nM,200 to 500 nM,,,
Cc1onc(-c2ccc(Cl)cc2Cl)c1C(=O)Nc1nc(-c2ccccn2)cs1 [Example 17],200 to 500 nM,200 to 500 nM,,,
O=C(Nc1nc(-c2ccccn2)cs1)c1c(C(F)(F)F)nn(-c2ccccc2)c1C(F)(F)F [Example 17],,,1000 to 10000 nM,1000 to 10000 nM,
COc1cccc(-c2noc(C)c2C(=O)Nc2nc(-c3ccccn3)cs2)c1 [Example 18],500 to 1000 nM,200 to 500 nM,,,
O=C(Nc1nc(-c2ccccn2)cs1)c1cnnn1-c1cccc(F)c1 [Example 18],,,200 to 500 nM,200 to 500 nM,
Cc1cc(C(=O)Nc2nc(-c3ncccc3C)co2)n(-c2ccc(S(C)(=O)=O)cc2)n1 [Example 19],,,,,"IC50 [1, 5]: 200 to 500 nM; IC50 [2, 5]: < 200 nM"
Cc1onc(-c2cccc(F)c2F)c1C(=O)Nc1nc(-c2ccccn2)cs1 [Example 19],200 to 500 nM,200 to 500 nM,,,
